US4987151A, “Triterpene derivatives cholesterol acyltransferase inhibitors and methods of using same” (The Trustees of Columbia University in the City of New York, priority 1989, dated 1991)
Each block holds one compound with its values, some of them ahead of it.

Experiments:
rats = conditions: cited from earlier work
J774 Macrophages = conditions: tissue culture macrophages (J774); cited from earlier work
ACAT enzyme = assay: ACAT inhibitory activity, free hydroxyl compound versus ester admixture; assay type: biochemical
Experimental: The term "effective amount" as used herein is an amount sufficient to inhibit the ACAT enzyme from esterifying cholesterol and fatty acids to cholesteryl esters. The actual amount used varies depending on which compound or composition or admixture is used. For example, the free hydroxyl compound seems to have less activity than an admixture of the stearate and palmitate esters. The actual dosages may vary from about 0.1 mg/kg/day to about 50 mg/kg/day, and may be adjusted by a person of ordinary skill in the art to maximize effectiveness while avoiding side effects and toxicities.

SMILES: CCCCCCCN(Cc1ccc(CC(C)(C)C)cc1)C(=O)Nc1ccc(F)cc1F [CL 277,082]
effect on cholesterol concentrations in plasma, liver, and aorta (rats): decreasing cholesterol concentrations in plasma, liver, and aorta

SMILES: CCCCCCCCCC[Si](C)(C)CCC(=O)NC(Cc1ccc(C)cc1)c1ccccc1 (stereo not drawn) [Sandoz Compound 58-035]
effect on foam cell formation (J774 Macrophages): help prevent foam cell formation

activity relative to admixture of the stearate and palmitate esters (ACAT enzyme): less activity
SMILES: C[C@@H]1[C@H](O)CC[C@]2(C)[C@H]3CC=C4[C@@H]5C[C@](C)(C(=O)O)C[C@H](O)[C@]5(C)CC[C@@]4(C)[C@]3(C)CC[C@@H]12 [free hydroxyl compound]
